In PubChem BioAssay (NCI):
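Five concentrations, 48 hours, 96-well plates. GI50: concentration for 50% inhibition of growth. The concentration for full growth arrest is given as TGI.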

Experiments:
Test in all cases: NCI anticancer screen, dose series, 48 h
[1] = tested on: SNB-19 CNS
[2] = tested on: MALME-3M melanoma
[3] = tested on: T-47D breast
[4] = tested on: SK-MEL-28 melanoma
[5] = tested on: SK-MEL-2 melanoma
[6] = tested on: HOP-62 NSCLC
[7] = tested on: OVCAR-5 ovarian
[8] = tested on: MDA-MB-231 breast
[9] = tested on: RPMI-8226 leukemia
[10] = tested on: LOX IMVI melanoma
[11] = tested on: HL-60(TB) leukemia
[12] = tested on: MDA-MB-435
[13] = tested on: A549 NSCLC
[14] = tested on: TK-10 renal
[15] = tested on: UACC-257 melanoma
[16] = tested on: CAKI-1 renal
[17] = tested on: PC-3 prostate
[18] = tested on: M14 melanoma
[19] = tested on: OVCAR-8 ovarian
[20] = tested on: NCI-H226 lung
[21] = tested on: HOP-92 NSCLC
[22] = tested on: U251 CNS
[23] = tested on: OVCAR-3 ovarian
[24] = tested on: SF-268 CNS
[25] = tested on: DU-145 prostate
[26] = tested on: HT29 colon
[27] = tested on: K-562 leukemia
[28] = tested on: BT-549 breast
[29] = tested on: NCI-H460 lung
[30] = tested on: HCT-116 colon
[31] = tested on: NCI-H23 lung
[32] = tested on: UO-31 renal
[33] = tested on: UACC-62 melanoma
[34] = tested on: KM12 colon
[35] = tested on: 786-0 renal
[36] = tested on: SW-620 colon
[37] = tested on: NCI/ADR-RES ovarian
[38] = tested on: IGROV1 ovarian
[39] = tested on: COLO 205 colon
[40] = tested on: NCI-H522 lung
[41] = tested on: SF-295 CNS
[42] = tested on: HCT-15 colon
[43] = tested on: MCF7 breast
[44] = tested on: SK-MEL-5 melanoma
[45] = tested on: EKVX NSCLC
[46] = tested on: MOLT-4 leukemia
[47] = tested on: HS 578T breast
[48] = tested on: OVCAR-4 ovarian
[49] = tested on: SN12C renal
[50] = tested on: CCRF-CEM leukemia
[51] = tested on: SNB-75 CNS
[52] = tested on: SF-539 CNS
[53] = tested on: SK-OV-3 ovarian
[54] = tested on: ACHN renal
[55] = tested on: A498 renal
[56] = tested on: RXF 393 renal

## CC(C)=NN/C(=N\S(=O)(=O)c1cc2ccccc2s1)Nc1ccc(Cl)cc1
[1]
  TGI: > 100 µM
[2]
  TGI: > 100 µM
[3]
  TGI: 76.3 µM
[4]
  TGI: > 100 µM
[5]
  TGI: > 100 µM
[6]
  TGI: > 100 µM
[7]
  TGI: > 100 µM
[8]
  TGI: > 100 µM
[9]
  TGI: > 100 µM
[10]
  TGI: > 100 µM
[11]
  TGI: > 100 µM
[12]
  TGI: > 100 µM
[13]
  TGI: > 100 µM
[14]
  TGI: > 100 µM
[15]
  TGI: > 100 µM
[16]
  TGI: > 100 µM
[17]
  TGI: > 100 µM
[18]
  TGI: > 100 µM
[19]
  TGI: > 100 µM
[20]
  TGI: > 100 µM
[21]
  TGI: > 100 µM
[22]
  TGI: > 100 µM
[23]
  TGI: > 100 µM
[24]
  TGI: > 100 µM
[25]
  TGI: > 100 µM
[26]
  TGI: > 100 µM
[27]
  TGI: > 100 µM
[28]
  TGI: > 100 µM
[29]
  TGI: > 100 µM
[30]
  TGI: > 100 µM
[31]
  TGI: > 100 µM
[32]
  TGI: > 100 µM
[33]
  TGI: > 100 µM
[34]
  TGI: > 100 µM
[35]
  TGI: > 100 µM
[36]
  TGI: > 100 µM
[37]
  TGI: > 100 µM
[38]
  TGI: > 100 µM
[39]
  TGI: > 100 µM
[40]
  TGI: > 100 µM
[41]
  TGI: > 100 µM
[42]
  TGI: > 100 µM
[43]
  TGI: > 100 µM
[44]
  TGI: > 100 µM
[45]
  TGI: 60.2 µM
[46]
  TGI: > 100 µM
[47]
  TGI: > 100 µM
[48]
  TGI: > 100 µM
[49]
  TGI: > 100 µM
[50]
  TGI: > 100 µM

## CC1=C2[C@H]3OC(=O)[C@@H](C)[C@@H]3CC[C@@]2(C)C=CC1=O
[1]
  GI50: > 100 µM
  TGI: > 100 µM
[3]
  GI50: > 100 µM
  TGI: > 100 µM
[51]
  GI50: > 100 µM
  TGI: > 100 µM
[4]
  GI50: > 100 µM
  TGI: > 100 µM
[52]
  GI50: > 100 µM
  TGI: > 100 µM
[5]
  GI50: > 100 µM
  TGI: > 100 µM
[6]
  GI50: > 100 µM
  TGI: > 100 µM
[7]
  GI50: > 100 µM
  TGI: > 100 µM
[8]
  GI50: > 100 µM
  TGI: > 100 µM
[9]
  GI50: > 100 µM
  TGI: > 100 µM
[10]
  GI50: > 100 µM
  TGI: > 100 µM
[11]
  GI50: > 100 µM
  TGI: > 100 µM
[12]
  GI50: > 100 µM
  TGI: > 100 µM
[13]
  GI50: > 100 µM
  TGI: > 100 µM
[14]
  GI50: > 100 µM
  TGI: > 100 µM
[53]
  GI50: > 100 µM
  TGI: > 100 µM
[15]
  GI50: > 100 µM
  TGI: > 100 µM
[16]
  GI50: > 100 µM
  TGI: > 100 µM
[17]
  GI50: > 100 µM
  TGI: > 100 µM
[18]
  GI50: > 100 µM
  TGI: > 100 µM
[19]
  GI50: > 100 µM
  TGI: > 100 µM
[20]
  GI50: > 100 µM
  TGI: > 100 µM
[21]
  GI50: > 100 µM
  TGI: > 100 µM
[22]
  GI50: > 100 µM
  TGI: > 100 µM
[23]
  GI50: > 100 µM
  TGI: > 100 µM
[54]
  GI50: > 100 µM
  TGI: > 100 µM
[24]
  GI50: > 100 µM
  TGI: > 100 µM
[25]
  GI50: > 100 µM
  TGI: > 100 µM
[26]
  GI50: > 100 µM
  TGI: > 100 µM
[27]
  GI50: > 100 µM
  TGI: > 100 µM
[28]
  GI50: > 100 µM
  TGI: > 100 µM
[29]
  GI50: > 100 µM
  TGI: > 100 µM
[55]
  GI50: > 100 µM
  TGI: > 100 µM
[30]
  GI50: > 100 µM
  TGI: > 100 µM
[31]
  GI50: > 100 µM
  TGI: > 100 µM
[33]
  GI50: > 100 µM
  TGI: > 100 µM
[34]
  GI50: > 100 µM
  TGI: > 100 µM
[35]
  GI50: > 100 µM
  TGI: > 100 µM
[36]
  GI50: > 100 µM
  TGI: > 100 µM
[37]
  GI50: > 100 µM
  TGI: > 100 µM
[38]
  GI50: > 100 µM
  TGI: > 100 µM
[39]
  GI50: > 100 µM
  TGI: > 100 µM
[41]
  GI50: > 100 µM
  TGI: > 100 µM
[42]
  GI50: > 100 µM
  TGI: > 100 µM
[56]
  GI50: > 100 µM
  TGI: > 100 µM
[43]
  GI50: > 100 µM
  TGI: > 100 µM
[44]
  GI50: > 100 µM
  TGI: > 100 µM
[45]
  GI50: > 100 µM
  TGI: > 100 µM
[46]
  GI50: > 100 µM
  TGI: > 100 µM
[47]
  GI50: > 100 µM
  TGI: > 100 µM
[48]
  GI50: > 100 µM
  TGI: > 100 µM
[49]
  GI50: > 100 µM
  TGI: > 100 µM
[50]
  GI50: > 100 µM
  TGI: > 100 µM
